Laboratory results taken from patent EP4603105A1, “PHARMACEUTICAL COMPOSITION CONTAINING CYCLIC COMPOUND HAVING SELECTIVE KRAS INHIBITORY EFFECT AGAINST HRAS AND NRAS” (CHUGAI SEIYAKU KABUSHIKI KAISHA, priority 2022, dated 2024).

Legend:
[1] = biological target: GDP-bound KRAS wild-type protein (Homo sapiens, UniProt P01116); experiment: Binding to KRAS by surface plasmon resonance (SPR), dissociation constant KD; settings: Single Cycle Kinetics, 1:1 binding model
Outline: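 Running buffer contained 10 µM GDP and 10 mM MgCl2 to keep RAS in the GDP state, with 4% DMSO at pH 7.4. Compounds were flowed at 100 µL/min in 75 s steps of rising concentration over captured biotin-Avi RAS at 30°C. Sensorgrams were fitted 1:1 for KD.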

[2] = biological target: GDP-bound NRAS wild-type protein (Homo sapiens, UniProt P01111); experiment: Binding to NRAS by surface plasmon resonance (SPR), KD and KD ratio to KRAS; settings: ratio of KD value for GDP-bound NRAS wild-type protein to KD value for KRAS (SPR)
Sequence of GDP-bound NRAS wild-type protein (P01111 whole entry): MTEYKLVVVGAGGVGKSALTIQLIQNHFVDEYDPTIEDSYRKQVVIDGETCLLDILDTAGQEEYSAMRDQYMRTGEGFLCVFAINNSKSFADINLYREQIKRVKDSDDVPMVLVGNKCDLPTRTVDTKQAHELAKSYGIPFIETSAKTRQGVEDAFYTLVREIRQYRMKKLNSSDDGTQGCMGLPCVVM
Outline: (§1)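 Affinity is measured by surface plasmon resonance at 30°C against captured, GDP-loaded RAS carrying a biotinylated Avi tag. Compounds are titrated by single-cycle kinetics, and KD comes from a 1:1 fit.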

HRAS wild-type protein = HRAS wild-type protein (Homo sapiens, UniProt P01112); experiment: Binding to HRAS by surface plasmon resonance (SPR), KD and KD ratio to KRAS; settings: ratio of KD value for HRAS wild-type protein to KD value for KRAS (SPR)
Sequence of HRAS wild-type protein (P01112 whole entry): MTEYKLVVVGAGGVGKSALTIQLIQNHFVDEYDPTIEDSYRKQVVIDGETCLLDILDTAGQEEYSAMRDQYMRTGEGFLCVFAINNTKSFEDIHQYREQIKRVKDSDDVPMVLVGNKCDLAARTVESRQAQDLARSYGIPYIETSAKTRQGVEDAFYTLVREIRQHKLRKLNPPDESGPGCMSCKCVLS
Outline: as §1

[3] = system: human lung cancer strain NCI-H441; type: cell-based
Outline: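 Readout: […] after the ATP-based reagent. Compound: serial dilutions in dimethyl sulfoxide.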

Sequence of GDP-bound KRAS wild-type protein (P01116 1-188 isoform P01116-2): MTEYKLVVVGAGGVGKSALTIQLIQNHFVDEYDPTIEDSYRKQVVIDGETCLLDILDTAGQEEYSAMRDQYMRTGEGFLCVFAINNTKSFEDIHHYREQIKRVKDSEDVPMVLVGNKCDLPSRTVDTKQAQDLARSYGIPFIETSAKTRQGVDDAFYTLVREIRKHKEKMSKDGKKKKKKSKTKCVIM

Row | SMILES | Kd [1] | NRAS /KRAS [2] | HRAS /KRAS (HRAS wild-type protein) | IC50 [3]
1 | CCC[C@H]1C(=O)N[C@@H]([C@@H](C)CC)C(=O)N(C)CC(=O)N(C)[C@H]2C/C=C\CCN(C2=O)[C@@H](Cc2ccc(C)cc2)C(=O)N(C)CC(=O)N[C@@H](CCc2ccc(C(F)(F)F)c(OC)c2)C(=O)N2C[C@@H](C)C[C@H]2C(=O)NC2(CCC2)C(=O)N(C)[C@@H](C2CCCC2)C(=O)N(C)[C@H](C(=O)N(C)CC)CC(=O)N1C [PP1840] | 0.12 nM | A (a compound having 10 or more and less than 20 is denoted as A) | B (a compound having 3 or more and less than 10 is denoted as B) | 26.8 nM
2 | CC[C@H](C)[C@@H]1NC(=O)[C@H](CC)N(C)C(=O)C[C@@H](C(=O)N(C)C)N(C)C(=O)[C@H](C2CCCC2)N(C)C(=O)C2(CC(C)(C)C2)NC(=O)[C@@H]2C[C@@H](C)CN2C(=O)[C@H](CCc2ccc(C(F)(F)F)c(Cl)c2)NC(=O)CN(C)C(=O)[C@H](Cc2ccc(C)cc2)N2CC/C=C\C[C@@H](C2=O)N(C)C(=O)CN(C)C1=O [PP1846] | 0.1 nM | A (a compound having 10 or more and less than 20 is denoted as A) | B (a compound having 3 or more and less than 10 is denoted as B) | 9.8 nM
3 | CC[C@H](C)[C@@H]1NC(=O)[C@H](CC(C)C)N(C)C(=O)C[C@@H](C(=O)N(CC)CC)N(C)C(=O)[C@H](C2CCCC2)N(C)C(=O)C2(CCC2)NC(=O)[C@@H]2C[C@@H](C)CN2C(=O)[C@H](CCc2ccc(C(F)(F)F)c(OC)c2)NC(=O)CN(C)C(=O)[C@H](Cc2ccc(C)cc2)N2CC/C=C\C[C@@H](C2=O)N(C)C(=O)CN(C)C1=O [PP1849] | 0.38 nM | A (a compound having 10 or more and less than 20 is denoted as A) | A (a compound having 10 or more and less than 20 is denoted as A) | 37.1 nM
4 | CCO[C@@H]1C[C@H]2C(=O)NC3(CCC3)C(=O)N(C)[C@@H](C3CCCC3)C(=O)N(C)[C@H](C(=O)N(CC)CC)CC(=O)N(C)[C@@H](CC(C)C)C(=O)N[C@@H]([C@@H](C)CC)C(=O)N(C)CC(=O)N(C)[C@H]3C/C=C\CCN(C3=O)[C@@H](Cc3ccc(C)cc3)C(=O)N(C)CC(=O)N[C@@H](CCc3ccc(C(F)(F)F)c(OC)c3)C(=O)N2C1 [PP1851] | 1.8 nM | A (a compound having 10 or more and less than 20 is denoted as A) | A (a compound having 10 or more and less than 20 is denoted as A) | 165 nM
5 | CC[C@H](C)[C@@H]1NC(=O)[C@H](CC(C)C)N(C)C(=O)C[C@@H](C(=O)N(C)C)N(C)C(=O)[C@H](C2CCCC2)N(C)C(=O)C2(CCC2)NC(=O)[C@@H]2C[C@H](C)CN2C(=O)[C@H](CCc2ccc(C(F)(F)F)c(Cl)c2)NC(=O)CN(C)C(=O)[C@H](Cc2ccc(C)cc2)N2CC/C=C\C[C@@H](C2=O)N(C)C(=O)CN(C)C1=O [PP1852] | 0.071 nM | A (a compound having 10 or more and less than 20 is denoted as A) | B (a compound having 3 or more and less than 10 is denoted as B) | 6 nM
6 | CCC[C@H]1C(=O)N[C@@H]([C@@H](C)CC)C(=O)N(C)CC(=O)N(C)[C@H]2C/C=C\CCN(C2=O)[C@@H](Cc2ccc(C)cc2)C(=O)N(C)CC(=O)N[C@@H](CCc2ccc(C(F)(F)F)c(OC)c2)C(=O)N2C[C@@H](C)C[C@H]2C(=O)NC2(CCC2)C(=O)N(C)[C@@H](C2CCCC2)C(=O)N(C)[C@H](C(=O)N(C)C)CC(=O)N1C [PP1857] | 0.091 nM | A (a compound having 10 or more and less than 20 is denoted as A) | B (a compound having 3 or more and less than 10 is denoted as B) | 5 nM
7 | CCC[C@H]1C(=O)N[C@@H]([C@@H](C)CC)C(=O)N(C)CC(=O)N(C)[C@H]2C/C=C\CCN(C2=O)[C@@H](Cc2ccc(C)cc2)C(=O)N(C)CC(=O)N[C@@H](CCc2ccc(C(F)(F)F)c(OC)c2)C(=O)N2C[C@H](C)C[C@H]2C(=O)NC2(CCC2)C(=O)N(C)[C@@H](C2CCCC2)C(=O)N(C)[C@H](C(=O)N(C)C)CC(=O)N1C [PP1859] | 0.14 nM | A (a compound having 10 or more and less than 20 is denoted as A) | A (a compound having 10 or more and less than 20 is denoted as A) | 28.8 nM
8 | CCC[C@H]1C(=O)N[C@@H]([C@@H](C)CC)C(=O)N(C)CC(=O)N(C)[C@H]2C/C=C\CCN(C2=O)[C@@H](Cc2ccc(C)cc2)C(=O)N(C)CC(=O)N[C@@H](CCc2cc(F)c(C(F)(F)F)c(F)c2)C(=O)N2C[C@@H](C)C[C@H]2C(=O)NC2(CCC2)C(=O)N(C)[C@@H](C2CCCC2)C(=O)N(C)[C@H](C(=O)N(C)CC)CC(=O)N1C [PP1860] | 0.11 nM | A (a compound having 10 or more and less than 20 is denoted as A) | A (a compound having 10 or more and less than 20 is denoted as A) | 10.3 nM
9 | CC[C@H](C)[C@@H]1NC(=O)[C@H](CC2CC2)N(C)C(=O)C[C@@H](C(=O)N(C)C)N(C)C(=O)[C@H](C2CCCC2)N(C)C(=O)C2(CCC2)NC(=O)[C@@H]2C[C@H](C)CN2C(=O)[C@H](CCc2ccc(C(F)(F)F)c(OC)c2)NC(=O)CN(C)C(=O)[C@H](Cc2ccc(C)cc2)N2CC/C=C\C[C@@H](C2=O)N(C)C(=O)CN(C)C1=O [PP1861] | 0.091 nM | A (a compound having 10 or more and less than 20 is denoted as A) | B (a compound having 3 or more and less than 10 is denoted as B) | 25.7 nM
10 | CCC[C@H]1C(=O)N[C@@H]([C@@H](C)CC)C(=O)N(C)CC(=O)N(C)[C@H]2C/C=C\CCN(C2=O)[C@@H](Cc2ccc(C)cc2)C(=O)N(C)CC(=O)N[C@@H](CCc2cc(F)c(C(F)(F)F)c(F)c2)C(=O)N2C[C@H](C)C[C@H]2C(=O)NC2(CCC2)C(=O)N(C)[C@@H](C2CCCC2)C(=O)N(C)[C@H](C(=O)N(C)CC)CC(=O)N1C [PP1862] | 0.12 nM | A (a compound having 10 or more and less than 20 is denoted as A) | A (a compound having 10 or more and less than 20 is denoted as A) | 22.2 nM
11 | CC[C@H](C)[C@@H]1NC(=O)[C@H](CC(C)C)N(C)C(=O)C[C@@H](C(=O)N(C)C)N(C)C(=O)[C@H](C2CCCC2)N(C)C(=O)C2(CCC2)NC(=O)[C@@H]2C[C@H](C)CN2C(=O)[C@H](CCc2ccc(C(F)(F)F)c(OC)c2)NC(=O)CN(C)C(=O)[C@H](Cc2ccc(C)cc2)N2CC/C=C\C[C@@H](C2=O)N(C)C(=O)CN(C)C1=O [PP1865] | 0.083 nM | A (a compound having 10 or more and less than 20 is denoted as A) | B (a compound having 3 or more and less than 10 is denoted as B) | 36 nM
12 | CCO[C@@H]1C[C@H]2C(=O)NC3(CCC3)C(=O)N(C)[C@@H](C3CCCC3)C(=O)N(C)[C@H](C(=O)N(CC)CC)CC(=O)N(C)[C@@H](CC(C)C)C(=O)N[C@@H]([C@@H](C)CC)C(=O)N(C)CC(=O)N(C)[C@H]3C/C=C\CCN(C3=O)[C@@H](Cc3ccc(C)cc3)C(=O)N(C)CC(=O)N[C@@H](CCc3ccc(C(F)(F)F)c(OC)c3)C(=O)N2C1 [PP1887] | 0.3 nM | A (a compound having 10 or more and less than 20 is denoted as A) | B (a compound having 3 or more and less than 10 is denoted as B) | 19.2 nM
13 | CCC[C@H]1C(=O)N[C@@H]([C@@H](C)CC)C(=O)N(C)CC(=O)N(C)[C@H]2C/C=C\CCN(C2=O)[C@@H](Cc2ccc(C)cc2)C(=O)N(C)CC(=O)N[C@@H](CCc2ccc(C(F)(F)F)c(OC)c2)C(=O)N2C[C@@H](C)C[C@H]2C(=O)NC2(CC(C)(C)C2)C(=O)N(C)[C@@H](C2CCCC2)C(=O)N(C)[C@H](C(=O)N(C)C)CC(=O)N1C [PP1888] | 0.074 nM | A (a compound having 10 or more and less than 20 is denoted as A) | B (a compound having 3 or more and less than 10 is denoted as B) | 3.5 nM
14 | CCC[C@H]1C(=O)N[C@@H]([C@@H](C)CC)C(=O)N(C)CC(=O)N(C)[C@H]2C/C=C\CCN(C2=O)[C@@H](Cc2ccc(C)cc2)C(=O)N(C)CC(=O)N[C@@H](CCc2ccc(C(F)(F)F)c(OC)c2)C(=O)N2C[C@H](C)C[C@H]2C(=O)NC2(CC(C)(C)C2)C(=O)N(C)[C@@H](C2CCCC2)C(=O)N(C)[C@H](C(=O)N(C)C)CC(=O)N1C [PP1890] | 0.15 nM | A (a compound having 10 or more and less than 20 is denoted as A) | B (a compound having 3 or more and less than 10 is denoted as B) | 3.6 nM
